Data set [1] has as its system sulfonylurea herbicide-sensitive Scirpus juncoides var. ohwianus. Kind of data set: Paddy pot weeding test, flooded, two-leaf stage (Test Example 1). It counts as in vivo. As to conditions: 1 g/are, three weeks after treatment, sensitive biotype, Kyoto Pref. The text has this: (§1) A 5 cm×5 cm Jiffy Pot™ was charged with paddy soil, then water was introduced into each pot, seeds of sulfonylurea herbicide-sensitive Scirpus juncoides var. ohwianus, sulfonylurea herbicide-sensitive Lindernia procumbens (Krock.) Philcox, sulfonylurea herbicide-sensitive Lindernia dubia subsp. major Pennell, sulfonylurea herbicide-resistant Scirpus juncoides var. ohwianus, sulfonylurea herbicide-resistant Lindernia procumbens (Krock.) Philcox and sulfonylurea herbicide-resistant Lindernia dubia subsp. major Pennell were sowed therein and cultivated for a prescribed period under flooding conditions. When the plants reached the two-leave stage, the prescribed number of Jiffy Pots where the plants had been grown were transferred to a 150-cm^2 rectangular plastic pot, and water was introduced to a height of 3 cm, and a chemical diluent containing a compound was applied into the pot in an amount of 1 g/are. The chemical diluent was prepared by dissolving 1.5 g compound in 2 L of N,N-dimethylformamide (DMF) containing, 2% (W/V) surfactant Tween™ 20 and then diluting it with water to adjust the total volume to 10 L.

Data set [2] relates to sulfonylurea herbicide-resistant Lindernia dubia subsp. major Pennell. Described as above. The data set is classed as in vivo. As to conditions: 1 g/are, three weeks after treatment, resistant biotype, Kawanishi Town, Yamagata Pref.
Description: as §1

Data set [3] relates to sulfonylurea herbicide-sensitive Lindernia procumbens (Krock.) Philcox. The data set is described as above. It counts as in vivo. As to conditions: 1 g/are, three weeks after treatment, sensitive biotype, Kyoto Pref.
Description: as §1

The subject of data set [4] is sulfonylurea herbicide-resistant Lindernia procumbens (Krock.) Philcox. The data set is described as above. The data set is classed as in vivo. As to conditions: 1 g/are, three weeks after treatment, resistant biotype, Tajiri Town, Miyagi Pref.
Description: as §1

The subject of data set [5] is sulfonylurea herbicide-resistant Scirpus juncoides var. ohwianus. The data set is described as above. It counts as in vivo. As to conditions: 1 g/are, three weeks after treatment, resistant biotype, Iwamisawa City, Hokkaido.
Description: as §1

For data set [6], the system named is sulfonylurea herbicide-sensitive Lindernia dubia subsp. major Pennell. The data set is described as above. It counts as in vivo. As to conditions: 1 g/are, three weeks after treatment, sensitive biotype, Makabe Town, Ibaraki Pref.
Description: as §1

In the case of `CCOc1ccc2nc(C)c(NC(=O)NS(=O)(=O)c3nc(OC)cc(OC)n3)n2n1` [Compound No. 16], the melting point was 168 to 170 °C (dec.). For the same compound, the “S Scirpus juncoides var. ohwianus (effect index)” value in data set [1] is recorded as 5 (excellent 81 to 100). The “R Lindernia dubia subsp. major Pennell (effect index)” value in data set [2] is 5 (excellent 81 to 100). Besides, the “S Lindernia procumbens (Krock.) Philcox (effect index)” value in data set [3] was 5 (excellent 81 to 100). The “R Lindernia procumbens (Krock.) Philcox (effect index)” value in data set [4] is listed as 4 (high 61 to 80). The “R Scirpus juncoides var. ohwianus (effect index)” value in data set [5] was 5 (excellent 81 to 100). In data set [6], the “S Lindernia dubia subsp. major Pennell (effect index)” value is 5 (excellent 81 to 100).
Take `COc1cc(OC)nc(S(=O)(=O)NC(=O)Nc2c(C)nc3ccc(N(C)C)nn23)n1` [Compound No. 14]: the melting point was 183 to 185 °C (dec.). Further, the “S Scirpus juncoides var. ohwianus (effect index)” value in data set [1] is reported as 5 (excellent 81 to 100). In addition, the “R Lindernia dubia subsp. major Pennell (effect index)” value in data set [2] was 4 (high 61 to 80). The “S Lindernia procumbens (Krock.) Philcox (effect index)” value in data set [3] was 5 (excellent 81 to 100). In addition, the “R Lindernia procumbens (Krock.) Philcox (effect index)” value in data set [4] is 3 (moderate 41 to 60). Further, the “R Scirpus juncoides var. ohwianus (effect index)” value in data set [5] was 5 (excellent 81 to 100). In addition, the “S Lindernia dubia subsp. major Pennell (effect index)” value in data set [6] is listed as 5 (excellent 81 to 100).
As to `CCSc1ccc2nc(CC)c(S(=O)(=O)NC(=O)Nc3nc(OC)cc(OC)n3)n2n1` [Compound No. 7, 1-(4,6-dimethoxypyrimidin-2-yl)-3-(2-ethyl-6-ethylthioimidazo[1,2-b]pyridazin-3-ylsulfonyl)urea], the melting point was 160 to 165 °C (dec.). The “S Scirpus juncoides var. ohwianus (effect index)” value in data set [1] is on record as 5 (excellent 81 to 100). Further, the “R Lindernia dubia subsp. major Pennell (effect index)” value in data set [2] is on record as 4 (high 61 to 80). In data set [3], the “S Lindernia procumbens (Krock.) Philcox (effect index)” value is given as 5 (excellent 81 to 100). Further, the “R Lindernia procumbens (Krock.) Philcox (effect index)” value in data set [4] was 3 (moderate 41 to 60). Also, the “R Scirpus juncoides var. ohwianus (effect index)” value in data set [5] is 5 (excellent 81 to 100). The “S Lindernia dubia subsp. major Pennell (effect index)” value in data set [6] is recorded as 5 (excellent 81 to 100).

The values are drawn from patent publication US8399381B2, “Condensed heterocyclic sulfonyl urea compound, a herbicide containing the same, and a method for weed control using the same” (Sumitomo Chemical Company, Limited, priority 2002, dated 2013).
